Key:
[1] = target: T1, Transient receptor potential cation channel subfamily A member 1 (Homo sapiens, UniProt O75762); assay: Antagonist activity at human TRPA1 expressed in HEK293 cells assessed as inhibition of 5H-dibenzo[b,e]azepine-10-carboxylic acid methyl ester-induced increase in intracellular calcium by Fluo4-AM based fluorometric assay; type: functional, cell-based
[2] = target: T2, Transient receptor potential cation channel subfamily A member 1 (Rattus norvegicus, UniProt Q6RI86); assay: Antagonist activity at rat TRPA1 expressed in HEK293 cells assessed as inhibition of BITC-induced increase in intracellular calcium concentration by Fluo4-AM based fluorometric assay; type: functional, cell-based
[3] = target: T2, Transient receptor potential cation channel subfamily A member 1; assay: Antagonist activity at rat TRPA1 expressed in HEK293 cells assessed as inhibition of N-methyl-maleimide-induced current by patch clamp assay
[4] = target: T1, Transient receptor potential cation channel subfamily A member 1; assay: Antagonist activity at human TRPA1 expressed in HEK293 cells assessed as inhibition of N-methyl-maleimide-induced current by patch clamp assay

T1 sequence (O75762 whole entry): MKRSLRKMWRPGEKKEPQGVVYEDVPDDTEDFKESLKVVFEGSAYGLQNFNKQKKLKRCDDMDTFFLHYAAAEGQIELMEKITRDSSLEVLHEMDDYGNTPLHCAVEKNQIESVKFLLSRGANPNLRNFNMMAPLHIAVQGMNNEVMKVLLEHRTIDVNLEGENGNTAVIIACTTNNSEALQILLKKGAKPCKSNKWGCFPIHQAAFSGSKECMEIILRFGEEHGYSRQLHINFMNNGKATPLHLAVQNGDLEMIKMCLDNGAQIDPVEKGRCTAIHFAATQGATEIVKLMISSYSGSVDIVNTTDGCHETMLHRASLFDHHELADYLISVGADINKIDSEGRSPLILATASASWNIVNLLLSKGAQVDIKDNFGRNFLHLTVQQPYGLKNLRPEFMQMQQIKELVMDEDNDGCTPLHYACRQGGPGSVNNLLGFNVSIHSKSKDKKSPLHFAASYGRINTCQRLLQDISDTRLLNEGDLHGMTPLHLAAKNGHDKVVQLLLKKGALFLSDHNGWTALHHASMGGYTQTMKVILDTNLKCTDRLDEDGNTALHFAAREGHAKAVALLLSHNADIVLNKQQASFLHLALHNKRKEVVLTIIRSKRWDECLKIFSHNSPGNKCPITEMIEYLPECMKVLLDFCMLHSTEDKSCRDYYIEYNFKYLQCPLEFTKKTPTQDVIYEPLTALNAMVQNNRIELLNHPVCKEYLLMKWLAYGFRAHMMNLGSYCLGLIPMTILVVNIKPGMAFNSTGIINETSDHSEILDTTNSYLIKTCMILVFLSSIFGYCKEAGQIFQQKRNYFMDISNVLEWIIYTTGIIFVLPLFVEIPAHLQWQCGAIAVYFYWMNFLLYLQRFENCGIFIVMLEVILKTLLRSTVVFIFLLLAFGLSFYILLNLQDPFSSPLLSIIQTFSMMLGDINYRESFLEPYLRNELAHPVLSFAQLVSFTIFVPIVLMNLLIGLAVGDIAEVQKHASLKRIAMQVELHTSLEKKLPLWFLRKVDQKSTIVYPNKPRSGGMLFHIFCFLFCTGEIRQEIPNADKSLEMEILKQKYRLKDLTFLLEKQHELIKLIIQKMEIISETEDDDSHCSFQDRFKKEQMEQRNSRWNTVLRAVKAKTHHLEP
T2 sequence (Q6RI86 whole entry): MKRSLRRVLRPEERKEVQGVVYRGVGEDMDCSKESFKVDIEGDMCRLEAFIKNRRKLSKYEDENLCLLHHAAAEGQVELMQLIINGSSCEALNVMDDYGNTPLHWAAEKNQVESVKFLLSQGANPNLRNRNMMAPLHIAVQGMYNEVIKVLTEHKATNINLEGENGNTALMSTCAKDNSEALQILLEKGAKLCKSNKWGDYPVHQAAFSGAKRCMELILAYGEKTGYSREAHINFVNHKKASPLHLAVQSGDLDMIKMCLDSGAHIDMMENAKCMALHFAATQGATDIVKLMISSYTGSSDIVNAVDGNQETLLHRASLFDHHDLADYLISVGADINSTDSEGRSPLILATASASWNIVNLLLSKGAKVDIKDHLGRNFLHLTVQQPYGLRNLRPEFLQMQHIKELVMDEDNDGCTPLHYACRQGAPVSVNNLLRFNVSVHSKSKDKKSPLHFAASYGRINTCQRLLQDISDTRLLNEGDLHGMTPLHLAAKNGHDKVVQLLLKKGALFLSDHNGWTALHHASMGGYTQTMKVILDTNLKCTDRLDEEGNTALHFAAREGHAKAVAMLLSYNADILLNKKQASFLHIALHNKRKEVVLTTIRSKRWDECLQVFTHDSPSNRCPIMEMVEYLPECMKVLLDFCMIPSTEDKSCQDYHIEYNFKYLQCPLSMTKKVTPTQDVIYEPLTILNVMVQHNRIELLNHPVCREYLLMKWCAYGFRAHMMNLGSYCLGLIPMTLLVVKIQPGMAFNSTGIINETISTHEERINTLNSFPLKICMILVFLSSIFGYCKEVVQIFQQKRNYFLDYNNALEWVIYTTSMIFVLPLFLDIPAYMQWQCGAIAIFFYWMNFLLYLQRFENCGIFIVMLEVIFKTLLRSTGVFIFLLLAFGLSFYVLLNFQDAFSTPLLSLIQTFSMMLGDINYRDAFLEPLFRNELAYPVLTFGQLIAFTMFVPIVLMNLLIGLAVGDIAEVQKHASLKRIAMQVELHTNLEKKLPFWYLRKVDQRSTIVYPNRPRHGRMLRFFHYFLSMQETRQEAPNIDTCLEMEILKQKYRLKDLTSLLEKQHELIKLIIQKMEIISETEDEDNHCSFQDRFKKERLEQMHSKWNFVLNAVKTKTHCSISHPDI

SMILES	IC50 [1] [nM]	IC50 [2] [nM]	EC50 [3] [nM]	EC50 [4] [nM]
SC1=NC2=C(CCC/C2=C\c2ccccc2)C(c2ccccc2)N1 (stereo unspecified)	> 10000	–	–	–
O=C1CCCC2=C1C(c1ccccc1)NC(S)=N2 (stereo unspecified)	> 10000	–	–	–
COc1ccc(Oc2cccc(C3NC(=S)NC4=C3C(=O)c3ccccc34)c2)cc1 (stereo unspecified)	1500	160	–	–
COc1cccc(C2NC(=S)NC3=C2C(=O)c2ccccc23)c1 (racemic)	130	20	–	–
CN(C)CCOc1cccc(C2NC(=S)NC3=C2C(=O)c2ccccc23)c1 (stereo unspecified)	> 10000	8900	–	–
CN(C)CCCOc1cccc(C2NC(=S)NC3=C2C(=O)c2ccccc23)c1 (stereo unspecified)	> 10000	> 10000	–	–
S=C1NC2=C(CCc3ccccc32)C(c2ccccc2)N1 (stereo unspecified)	> 10000	–	–	–
CC1=C(C(=O)c2ccccc2)C(c2ccccc2)NC(=S)N1 (stereo unspecified)	> 10000	–	–	–
COCCCOc1cccc(C2NC(=S)NC3=C2C(=O)c2ccccc23)c1 (racemic)	50	11	–	–
O=C1C2=C(NC(=S)NC2c2cccc(OCCO)c2)c2ccccc21 (stereo unspecified)	210	47	–	–
O=C1C2=C(NC(=S)NC2c2cccc(Br)c2)c2ccccc21 (stereo unspecified)	–	71	–	–
CC(C)c1ccc(NC(=O)Cn2cnc3c2c(=O)n(C)c(=O)n3C)cc1	> 10000	5600	–	–
CCCCOc1cccc(C2NC(=S)NC3=C2C(=O)c2ccccc23)c1 (stereo unspecified)	310	70	–	–
O=C1C2=C(NC(=S)NC2c2cccc(OCCCCO)c2)c2ccccc21 (stereo unspecified)	70	10	–	–
COc1cccc([C@H]2NC(=S)NC3=C2C(=O)c2ccccc23)c1	75	12	220	10
COCCCOc1cccc([C@@H]2NC(=S)NC3=C2C(=O)c2ccccc23)c1	–	> 10000	–	–
O=C1NC2=C(C(=O)c3ccccc32)C(c2ccccc2)N1 (stereo unspecified)	> 10000	> 10000	–	–
COc1cc(OC)cc(C2NC(=S)NC3=C2C(=O)c2ccccc23)c1 (stereo unspecified)	2780	800	–	–
COc1cccc(C2NC(=S)NC3=C2C(=O)c2ccccc23)c1OC (stereo unspecified)	–	2700	–	–
COc1cccc([C@@H]2NC(=S)NC3=C2C(=O)c2ccccc23)c1	–	> 10000	–	12000
SC1=NC(c2ccccc2)=CC(c2ccccc2)N1 (stereo unspecified)	> 10000	–	–	–

SMILES	IC50 [1] [nM]	IC50 [2] [nM]	EC50 [3] [nM]	EC50 [4] [nM]
O=C1C2=C(NC(=S)NC2c2cccc(F)c2)c2ccccc21 (stereo unspecified)	1100	390	–	–
COCCCOc1cccc([C@H]2NC(=S)NC3=C2C(=O)c2ccccc23)c1	13	4	–	–
CCOC(=O)C1=C(c2ccccc2)NC(=S)NC1c1cccc(OC)c1 (stereo unspecified)	> 10000	9500	–	–
COc1ccccc1C1NC(=S)NC2=C1C(=O)c1ccccc12 (stereo unspecified)	> 10000	9400	–	–
O=C1C2=C(NC(=S)N[C@@H]2c2ccccc2)c2ccccc21	770	310	–	–
O=C1C2=C(NC(=S)N[C@H]2c2ccccc2)c2ccccc21	8100	> 10000	–	–
O=C1C2=C(NC(=S)NC2c2ccccc2F)c2ccccc21 (stereo unspecified)	2070	3390	–	–
O=C1C2=C(NC(=S)NC2c2cccc(O)c2)c2ccccc21 (stereo unspecified)	640	230	–	–
COc1ccc(C2NC(=S)NC3=C2C(=O)c2ccccc23)cc1 (stereo unspecified)	3100	3500	–	–
COc1cccc(C2C3=C(NC(=S)N2C)c2ccccc2C3=O)c1 (racemic)	–	980	–	–
O=C(O)c1cccc(C2NC(=S)NC3=C2C(=O)c2ccccc23)c1 (stereo unspecified)	> 10000	> 10000	–	–
COCCCOc1cccc(C2NC(=O)NC3=C2C(=O)c2ccccc23)c1 (racemic)	1700	500	–	–
S=C(NCc1ccccc1)NCc1ccccc1	> 10000	–	–	–
COc1cccc(C2NC(=S)N(C)C3=C2C(=O)c2ccccc23)c1 (racemic)	85	3	–	–
COc1ccc(OC)c(C2NC(=S)NC3=C2C(=O)c2ccccc23)c1 (stereo unspecified)	–	> 10000	–	–
S=C1NC2=C(CCCC2)C(c2ccccc2)N1 (stereo unspecified)	> 10000	–	–	–
O=C1C2=C(NC(=S)NC2c2ccccc2)c2ccccc21 (racemic)	1800	1900	–	–
S=C1NC2=C(CCC2)C(c2ccccc2)N1 (stereo unspecified)	> 10000	–	–	–
O=C1C2=C(NC(=S)NC2c2cccc(CO)c2)c2ccccc21 (stereo unspecified)	710	44	–	–
COc1cccc(C2NC(=O)NC3=C2C(=O)c2ccccc23)c1 (racemic)	3900	4700	–	–

From ChEMBL document CHEMBL1938315, “Tricyclic 3,4-dihydropyrimidine-2-thione derivatives as potent TRPA1 antagonists” (Bioorg Med Chem Lett, 2012)
